Measurements as given in patent US7314858B2, “Retrocyclins: antiviral and antimicrobial peptides” (priority 2001, dated 2008).
Converted amounts (≈) assume the structure as drawn. “Also recorded” adds a separate entry of the source. Read-outs that look alike come from different tables or passages of the source. Where a SMILES comes first, the peptide text is derived from it. Bridges are numbered along the chain shown (N, C = ends).

Tests used:
primary HIV-1 isolates = conditions: for IC50: read-out: mean IC50; for IC50 / mean IC50: seven subtype B strains
Text: Viral isolates. Primary HIV-1 isolates were obtained from Institutional Review Board-approved Centers for Disease Control and Prevention (CDC) Studies or from the National Institutes of Health Research and Reference Reagent Program and World Health Organization collaborative network. Detailed characteristics of the CDC isolates, including subtype determination based on the envelope region, and co-receptor usage using GHOST cell lines have been described elsewhere. For viruses obtained from the NIH Research and Reference Reagent Program, the reported subtype and co-receptor data were used as supplied. Viral stocks were generated by infecting CD8-depleted normal human peripheral blood mononuclear cells. After filtration through 0.22-μm filters, aliquots of the stocks were stored at −70° C. until used.
Reporter gene-based viral replication assay. JC53-BL cells, an HIV-1 reporter cell line derived from HeLa cells that expresses high levels of CD4 and the HIV co-receptors CXCR4 and CCR5, were a gift of Tranzyme Inc. (Birmingham, Ala.). The JC53-BL cells contain cassettes for luciferase and β-galactosidase, each driven by the HIV-1 LTR. HIV infection (tat production) can be detected either by measuring luciferase activity or by counting blue foci after staining the cells with “X-Gal” (5-Bromo-4-chloro-3-indolyl β-D-galactopyranoside), as described elsewhere in detail. The JC53-BL cells were maintained in Dulbecco's modified Eagle medium supplemented with 10% fetal calf serum. (HyClone, Logan, Utah), 2 mM glutamine (Gibco), 100 units per ml penicillin G and 100 μg/ml streptomycin (GIBCO™, Invitrogen Corp., San Diego, Calif.). Viral titers were determined by adding serial dilutions of the virus stocks, in triplicate, to wells containing 20,000 JC53-BL cells, after supplementing the above medium with 40 μg/ml DEAE (diethylaminoethyl)-dextran. After a 48 hour incubation at 37° C. in 5% CO2, the cells were fixed and stained for β galactosidase, and the blue foci were counted with a light microscope. Multiplicity of infection (MOI) values were taken from the infectious unit data.
In vitro infections were carried out in the presence or absence of θ-defensin peptides. Briefly, JC53-BL cells were harvested from T-150 flasks approximately 18 hours prior to starting the assay with 0.1 mM EDTA in 0.017 M PBS, pH 7.4. The cells were washed and transferred to sterile white 96-well plates (Thermo Labsystems, Franklin, Mass.) at a density of 20,000 cells in 50 μl of medium. […] After this 3-hour preincubation with peptides, viruses were added in media containing 40 μg/ml DEAE-dextran. The final volume was 200 μl per well, and the multiplicity of infection (viruses/cell) ranged from 0.009 to 0.65. After the plates had incubated at 37° C. in 5% CO2 for 48 hours, luciferase activity was measured with the Steady-Glo Luciferase Assay System (Promega, Madison, Wis.), using the manufacturer's lysis protocol. Relative light intensity was measured with a Tecan luminometer running Magellan software (Tecan, Research Triangle Park, N.C.) and reported as relative light units (RLU). Each plate contained three sets of quadruplicate controls: media-only (background), virus-only (peptide-free), and recombinant luciferase. Samples were run in duplicate and the % inhibition was calculated from the mean values using the formula: % Inhibition=1−(average RLU peptide+virus wells/average RLU virus only wells)×100.
Fifty-percent inhibitory concentration values (IC50) were calculated using the predicted exponential growth function in Microsoft Excel, which uses known x-y values to estimate a given x value (in this case concentration of peptide) that would correspond to a given y value (in this case IC50). Statistical comparisons were by paired t-tests, unless otherwise noted.

HIV-1 strain IIIB = assay: HIV-1 IIIB infection of CD4+ PBMC, p24 antigen ELISA; format: cell-based; conditions: for inhibition of HIV-1 replication (p24): CD4+ PBMC, IIIB (X4), peptide 10-20 μg/ml
Method: FIG. 5A-C. Anti-HIV-1 activity of retrocyclin. Two strains of HIV-1 and two types of human target cells were used. The IIIB strain is T-cell tropic (X4) and utilizes the CXCR4 co-receptor for entry; the JR-CSF strain is M-tropic (R5) and uses CCR5 for entry. PBMC signifies CD4^+-selected peripheral blood mononuclear cells. […] (A) Two concentrations of retrocyclin (2 μg/ml, 20 μg/ml), 20 μg/ml of the Rhesus circular defensin “RTD-1”, and 20 μg/ml of a horseshoe crab-derived peptide “T140”, reported to only prevent X4 infections, were tested in antiviral assays of against strain IIIB in H9 cells (n=2-6 per peptide; error bars indicate SEM). (B) To confirm our results with primary human cells, similar assays were performed utilizing IIIB virus and CD4^+ PBMC or (C) JR-CSF virus and CD4^+ PBMC. […] Average of duplicate experiments are reported for studies with PBMCs. Assay sensitivity=10 pg/ml.
Either HIV-1-permissive H9 cells were used as targets, or primary CD4^+ lymphocytes from HIV-1-seronegative donors generated from freshly purified peripheral blood mononuclear cells (PBMC) stimulated with a CD3-CD8 bispecific monoclonal antibody. […] These cells were maintained in RPMI containing 10% FCS supplemented with 2 mM glutamine, 100 U of penicillin/ml, 10 μg of streptomycin/ml, and 50 U of interleukin 2/ml (R10-50 media).
Examining the effect of adding retrocyclin at various times pre- and post-HIV-1 infection. […] Primary CD4^+ PBMC were incubated with HIV-IIIB (FIG. 6) or HIV-JR-CSF for 3 hours in the presence or absence of 20 μg/ml retrocyclin. The cells were subsequently washed in media, and incubated an additional 9 days. Retrocyclin (20 μg/ml) was added back to some of the cultures at time points specified in FIG. 6 and infection was monitored by p24 ELISA as previously described. […]

[1] = isolate 92BR023, subtype C/B, R5
[2] = isolate 92HT593, Haiti, subtype B, X4
[3] = isolate 92RW009, subtype C/A, R5/X4
[4] = isolate 92UG005, Uganda, subtype D, R5
[5] = isolate 93TH060, Thailand, CRF01-AE, R5
[6] = isolate 93UG053, Uganda, subtype D, R5
[7] = isolate 93US151, USA, subtype B, X4
[8] = isolate 98CN009, China, subtype C, R5
[9] = isolate 98TZ017, Tanzania, subtype C, R5
[10] = isolate 5157-1326, USA, subtype B, R5
[11] = isolate 192431, Nigeria, subtype C, X4
[12] = isolate 193358, Nigeria, subtype C, R5
[13] = isolate 196531, Cameroon, subtype A, R5
[14] = isolate 196554, Senegal, subtype A, R5
[15] = isolate HM14, Thailand, CRF01-AE, X4

| SMILES | IC50 (mean±SEM, n=8) (primary HIV-1 isolates) [µg/mL] | IC50 Concentrations (primary HIV-1 isolates; [1]) [µg/mL] | IC50 Concentrations (primary HIV-1 isolates; [2]) [µg/mL] | IC50 Concentrations (primary HIV-1 isolates; [3]) [µg/mL] | IC50 Concentrations (primary HIV-1 isolates; [4]) [µg/mL] | IC50 Concentrations (primary HIV-1 isolates; [5]) [µg/mL] | IC50 Concentrations (primary HIV-1 isolates; [6]) [µg/mL] | IC50 Concentrations (primary HIV-1 isolates; [7]) [µg/mL] | IC50 Concentrations (primary HIV-1 isolates; [8]) [µg/mL] | IC50 Concentrations (primary HIV-1 isolates; [9]) [µg/mL] | IC50 Concentrations (primary HIV-1 isolates; [10]) [µg/mL] | IC50 Concentrations (primary HIV-1 isolates; [11]) [µg/mL] | IC50 Concentrations (primary HIV-1 isolates; [12]) [µg/mL] | IC50 Concentrations (primary HIV-1 isolates; [13]) [µg/mL] | IC50 Concentrations (primary HIV-1 isolates; [14]) [µg/mL] | IC50 Concentrations (primary HIV-1 isolates; [15]) [µg/mL] | IC50 (primary HIV-1 isolates) [µM] | mean IC50 (primary HIV-1 isolates) | inhibition of HIV-1 replication (p24) (HIV-1 strain IIIB) | other results |
| --- | --- | --- | --- | --- | --- | --- | --- | --- | --- | --- | --- | --- | --- | --- | --- | --- | --- | --- | --- | --- |
| CC[C@H](C)[C@@H]1NC(=O)CNC(=O)[C@H](CCCNC(=N)N)NC(=O)CNC(=O)[C@@H]2CSSC[C@H](NC1=O)C(=O)N[C@@H](CCCNC(=N)N)C(=O)N[C@H]1CSSC[C@H](NC(=O)[C@H](CCCNC(=N)N)NC(=O)[C@@H]3CSSC[C@H](NC(=O)[C@H]([C@@H](C)CC)NC1=O)C(=O)NCC(=O)N[C@@H](CCCNC(=N)N)C(=O)NCC(=O)N[C@@H]([C@@H](C)CC)C(=O)N3)C(=O)N[C@@H]([C@@H](C)CC)C(=O)N2 [RC-100, Retrocyclin] (cyclo(GICRCICGRGICRCICGR); disulfide 3-16, 5-14, 7-12) | 7.79 ± 1.16 (≈ 4.06 µM) | 4.71 (≈ 2.46 µM) | 5.73 (≈ 2.99 µM) | 8.72 (≈ 4.55 µM) | 5.18 (≈ 2.7 µM) | 7.39 (≈ 3.85 µM) | 6.38 (≈ 3.33 µM) | 1.69 (≈ 0.881 µM) | >10 | >10 | 4.64 (≈ 2.42 µM) | 5.18 (≈ 2.7 µM) | >10 | >10 | 5.73 (≈ 2.99 µM) | 3.09 (≈ 1.61 µM) | ~2.6 | approximately 5.0 μg/ml | complete suppression; also recorded: uniformly protective | IC50 Concentrations (primary HIV-1 isolates; isolate 92RW024, subtype D/A, R5): 7.78 µg/mL (≈ 4.06 µM); IC50 Concentrations (primary HIV-1 isolates; isolate 92UG037, Uganda, subtype A, R5): 1.44 µg/mL (≈ 0.751 µM); IC50 Concentrations (primary HIV-1 isolates; isolate 92US714, USA, subtype B, R5): >10 µg/mL; IC50 Concentrations (primary HIV-1 isolates; isolate 92US727, USA, subtype B, R5): 6.46 µg/mL (≈ 3.37 µM); IC50 Concentrations (primary HIV-1 isolates; isolate 93UG059, subtype A/D, X4): 6.65 µg/mL (≈ 3.47 µM); IC50 Concentrations (primary HIV-1 isolates; isolate 94UG114, Uganda, subtype D, R5): 3.69 µg/mL (≈ 1.92 µM); IC50 Concentrations (primary HIV-1 isolates; isolate 5148-1382, USA, subtype B, R5): 5.71 µg/mL (≈ 2.98 µM); IC50 Concentrations (primary HIV-1 isolates; isolate 5157-35097, USA, subtype B, R5X4): 6.29 µg/mL (≈ 3.28 µM); IC50 Concentrations (primary HIV-1 isolates; isolate 193317, Nigeria, subtype A, X4): >10 µg/mL; IC50 Concentrations (primary HIV-1 isolates; isolate RU132, Russia, subtype G, R5): 5.27 µg/mL (≈ 2.75 µM); IC50 Concentrations (primary HIV-1 isolates; isolate RU570, subtype G, R5): 8.63 µg/mL (≈ 4.5 µM); reduction of p24 concentration (HIV-1 strain IIIB; 20 μg/ml added 24 hours after initial infection): ~1000 fold |
| CC[C@H](C)[C@@H]1NC(=O)CNC(=O)[C@H](CCCCN)NC(=O)CNC(=O)[C@@H]2CSSC[C@H](NC1=O)C(=O)N[C@@H](CCCNC(=N)N)C(=O)N[C@H]1CSSC[C@H](NC(=O)[C@H](CCCNC(=N)N)NC(=O)[C@@H]3CSSC[C@H](NC(=O)[C@H]([C@@H](C)CC)NC1=O)C(=O)NCC(=O)N[C@@H](CCCNC(=N)N)C(=O)NCC(=O)N[C@@H]([C@@H](C)CC)C(=O)N3)C(=O)N[C@@H]([C@@H](C)CC)C(=O)N2 [RC-101, R9K-Retrocyclin] | 2.93 ± 0.95 (≈ 1.55 µM) | 3.04 (≈ 1.61 µM) | 0.76 (≈ 0.402 µM) | 2.72 (≈ 1.44 µM) | 1 (≈ 0.529 µM) | 2.15 (≈ 1.14 µM) | 1.54 (≈ 0.815 µM) | 0.49 (≈ 0.259 µM) | 8.53 (≈ 4.51 µM) | 4.87 (≈ 2.58 µM) | 3.59 (≈ 1.9 µM) | 0.54 (≈ 0.286 µM) | 2.75 (≈ 1.45 µM) | 2.65 (≈ 1.4 µM) | 0.51 (≈ 0.27 µM) | 0.84 (≈ 0.444 µM) | < 0.66 | < 1.25 µg/mL | as active as retrocyclin | protective activity compared with retrocyclin-1 (primary HIV-1 isolates): more active than retrocyclin-1; protective activity compared with retrocyclin-1 (primary HIV-1 isolates; subtype D strains, 1.25, 2.5, 5 and 10 μg/ml): more active than retrocyclin-1; protective activity compared with retrocyclin-1 (primary HIV-1 isolates; subtype G and various recombinant viruses): greater protection than retrocyclin-1 |
